Laboratory results: US5968932A, “Method of inhibiting sleep apnea” (Gruenenthal GmbH, priority 1998, dated 1999)

Legend:
[1] = test system: standard English bulldog test model; test: English bulldog test model of obstructive sleep apnea (hypersomnolence and sleep disordered breathing), Example 1; type: in vivo; details: 100 μg/kg i.v.; for Sleep disordered breathing index (SDBI): REM events per REM time/60 min; for Total sleep time (TST): eight hour observation
Method: Five bulldogs were implanted with subcutaneous electroencephalogram (EEG) electrodes and instrumented with respiratory oscillation belts (Respitrace™) to measure abdominal and ribcage movements and with an ear oximeter to measure oxygen saturation (SaO2). […] Montirelin in a sterile saline vehicle was administered intravenously to the test animals at a dosage of 100 μg/kg. Each test with active substance was preceded by a control day in which only the saline vehicle was administered. The effect of Montirelin on hypersomnolence and sleep disordered breathing was assessed.
Hypersomnolence was determined by sleep latency and total sleep time. Total sleep time (TST) is expressed as a percentage calculated by dividing the total sleep time in minutes by the total study time in minutes and multiplying the resulting quotient by 100 according to the formula: [formula]
Sleep latency was defined as the total minutes until the onset of non-REM sleep.
Sleep disordered breathing was evaluated in terms of a sleep disordered breathing index (SDBI) defined as the total number of rapid eye movement (REM) events divided by a quantity equal to the total REM time divided by 60 minutes according to the formula: [formula] A REM event (apnea) is defined as an incident of decreased or absent respiration and a decrease of 4% or more in the saturated blood oxygen (SaO2) level occurring during REM sleep.

[2] = test system: bulldog with moderately severe obstructive sleep apnea; test: Dose study in one bulldog with moderately severe obstructive sleep apnea, Example 2; type: in vivo; details: for non-REM sleep RDI (respiratory disturbance incidents): saline control 6; for Arousal index: saline control 12; for REM sleep RDI (respiratory disturbance incidents): saline control 44; for Lowest O2 saturation: saline control 89; for Mean sleep efficiency: six hours, saline control 39%
Method: In a further experiment, Montirelin was administered on different days at varying dosage levels to one bulldog with moderately severe obstructive sleep apnea. In this bulldog, a double-blind study was conducted in which saline was administered as a control and four different doses of Montirelin (100 mg/kg, 200 mg/kg, 400 mg/kg and 800 mg/kg) were administered. The dog was studied on four different days at each dose of the active compound. […] The order of different doses of drug or saline control was randomized, and a wash-out period of two days was allowed after study of a particular dose. During the studies, respiratory movement, oxygen saturation and electroencephalogram for sleep state were measured. The number of sleep-disordered breathing events or respiratory disturbance incidents (RDI) per hour was calculated according to the formula given above both for non-rapid eye movement (non-REM) sleep, which occupies the majority of sleep time, and rapid eye movement (REM) sleep. Mean sleep efficiency and arousal index were also determined.

Sprague-Dawley rats = test: Subacute repeated-dose (five weeks) intravenous toxicity with four-week recovery study in rats; type: in vivo, Sprague-Dawley rats (SPF Slc:SD)
Method: The subacute repeated-dose intravenous toxicity of Montirelin was investigated in Sprague-Dawley rats treated repeatedly at 0.05, 0.5,5 and 50 mg/kg/day for five weeks, and the reversibility of its toxic effects was also investigated by a four-week recovery study.
[…] SPF Slc:SD rats of both sexes (age: four weeks, body weight: 70.0-81.6 g) were purchased from Shizuoka Agriculture Cooperative Association for Laboratory Animals. During a one-week quarantine/acclimation period, the animals were measured for body weight and observed for any general symptoms, and healthy animals showing normal growth were selected and used in the experiment at the age of five weeks.
Males and females were used in five groups (including the control group) of 10 animals/sex, and additional 10 animals/sex were added to the control, 0.5 mg/kg and 50 mg/kg groups to investigate the reversibility of the toxic effect of the test substance. All these animals were randomized to each group by weight stratification so that the differences in initial mean body weight were within 2% between groups. At the start of the treatment, the body weight was 116.5-132.9 g for males and 107.0-123.4 g for females.
The maximal dose was set at […] lower doses were set at 5, 0.5 and 0.05 mg/kg using a common ratio of 1/10. This study also included the vehicle control group.
Dosing solutions were prepared by dissolving a weighed amount of the test substance in physiological saline at a concentration of 1 W/V % using a volumetric flask. Lower dosing solutions were obtained by successive 10-fold dilution of the initial solution. The respective dosing solution was repeatedly administered intravenously once daily for 35 days into the tail vein at a rate of 0.2 ml/10 sec. using a 1/4 syringe for injection. The treatment was given at a constant volume of 0.5 ml/100 g body weight in all dose groups, and the control group was treated with physiological saline at the same volume in the same manner.
Clinical signs in all animals were observed daily between two and four hours after dosing according to Irwin's method of comprehensive observational assessment, and the type, severity, onset time and disappearance time of toxic symptoms were recorded. During the recovery period, the clinical observation was performed once daily in the morning in the same manner. The body weight, food consumption and water consumption were measured in all animals three times weekly in the morning throughout the treatment and recovery periods and recorded.

central nervous system = details: known compound, background statement; cited from earlier work

Structure (SMILES): C[C@H]1SC[C@@H](C(=O)N[C@@H](Cc2c[nH]cn2)C(=O)N2CCC[C@H]2C(N)=O)NC1=O.O.O.O.O [Montirelin, (3R, 6R) -N-[(6-methyl-5-oxo-3-thiomorpholinyl)carbonyl]-L-histidyl-L-prolinamide tetrahydrate]
- Awakening / sleep pattern, result in words ([1]; versus saline control): awaken less frequently and thus exhibit markedly better consolidated sleep patterns
- Reduction in sleep disordered breathing ([1]; versus saline control): approximately 50%
- Sleep depth, result in words ([1]; versus saline control): sleep may be somewhat shallower
- Total sleep time, result in words ([1]; versus saline control): only a slight reduction in total sleep time
- Sleep disordered breathing index (SDBI), average ([1]; Average of 5 dogs, saline control 15.9 ± 11): 8.7 ± 10
- Total sleep time (TST), average ([1]; Average of 5 dogs, saline control 20.9 ± 8.3): 16.4 ± 8.5%
- Sleep latency, average ([1]; Average of 5 dogs, saline control 91.4 ± 14): 142 ± 61.4 min
- Sleep latency (minutes until onset of non-REM sleep) ([1]; Test dog 1): 47 min
- Sleep disordered breathing index (SDBI) ([1]; Test dog 1): 7.2
- Total sleep time (TST) ([1]; Test dog 1): 18.5%
- Sleep latency (minutes until onset of non-REM sleep) ([1]; Test dog 2): 149 min
- Sleep disordered breathing index (SDBI) ([1]; Test dog 2): 8.2
- Total sleep time (TST) ([1]; Test dog 2): 17.0%
- Sleep latency (minutes until onset of non-REM sleep) ([1]; Test dog 3): 145 min
- Sleep disordered breathing index (SDBI) ([1]; Test dog 3): 2.6
- Total sleep time (TST) ([1]; Test dog 3): 26.7%
- Sleep latency (minutes until onset of non-REM sleep) ([1]; Test dog 4): 150 min
- Sleep disordered breathing index (SDBI) ([1]; Test dog 4): 0.0
- Total sleep time (TST) ([1]; Test dog 4): 17.0%
- Sleep latency (minutes until onset of non-REM sleep) ([1]; Test dog 5): 219 min
- Sleep disordered breathing index (SDBI) ([1]; Test dog 5): 25.7
- Total sleep time (TST) ([1]; Test dog 5): 3.0%
- non-REM sleep RDI (respiratory disturbance incidents) ([2]; 100 mg/kg i.v.): 8 per hour
- Arousal index ([2]; 100 mg/kg i.v.): 16
- REM sleep RDI (respiratory disturbance incidents) ([2]; 100 mg/kg i.v.): 53 per hour
- Lowest O2 saturation ([2]; 100 mg/kg i.v.): 92
- Mean sleep efficiency ([2]; 100 mg/kg i.v.): 41%
- non-REM sleep-disordered breathing events, result in words ([2]; 200 mg/kg and above, i.v.): significant reduction in non-REM sleep-disordered breathing events
- non-REM sleep RDI (respiratory disturbance incidents) ([2]; 200 mg/kg i.v., p < 0.05): 0 per hour
- Arousal index ([2]; 200 mg/kg i.v.): 7
- REM sleep RDI (respiratory disturbance incidents) ([2]; 200 mg/kg i.v.): 70 per hour
- Lowest O2 saturation ([2]; 200 mg/kg i.v.): 86
- Mean sleep efficiency ([2]; 200 mg/kg i.v.): 37%
- REM sleep occurrence, result in words ([2]; 400 mg/kg and 800 mg/kg, i.v.): the animal did not enter REM sleep
- non-REM sleep RDI (respiratory disturbance incidents) ([2]; 400 mg/kg i.v.): 4 per hour
- Arousal index ([2]; 400 mg/kg i.v.): 12
- Lowest O2 saturation ([2]; 400 mg/kg i.v.): 92
- Mean sleep efficiency ([2]; 400 mg/kg i.v.): 40%
- non-REM sleep RDI (respiratory disturbance incidents) ([2]; 800 mg/kg i.v., p < 0.05): 2 per hour
- Arousal index ([2]; 800 mg/kg i.v., p < 0.05): 6
- Lowest O2 saturation ([2]; 800 mg/kg i.v.): 93
- Mean sleep efficiency ([2]; 800 mg/kg i.v.): 38%
- Dose dependence of non-REM breathing-decline episodes, result in words ([2]; 100 to 800 mg/kg i.v.): dose-dependent reduction in the number of episodes where breathing declines during non-REM sleep
- Number of arousals per hour, result in words ([2]; i.v., versus saline): did reduce the number of arousals per hour
- Oxyhemoglobin saturation during breathing episodes, result in words ([2]; i.v., versus saline): no effect on oxyhemoglobin saturation during breathing episodes
- Sleep efficiency, result in words ([2]; i.v., versus saline): did not affect sleep efficiency
- REM sleep RDI, result in words ([2]; lower dose levels, i.v.): there does not appear to have been an impact on REM sleep RDI
- Water consumption (Sprague-Dawley rats; 5 mg/kg/day or above i.v., from day 2-3 until about week 4): increased in both sexes
- Day by which polyuria disappeared (Sprague-Dawley rats; 5 mg/kg/day or higher i.v.): 4 to 28 days
- Time of polyuria peak (Sprague-Dawley rats; 5 mg/kg/day or higher i.v., from day 0-3): peaked at about one hour after dosing
- Transient polyuria (Sprague-Dawley rats; 5 mg/kg/day or higher i.v., males and females): almost all males and females showed transient polyuria
- Mortality (Sprague-Dawley rats; 0.05, 0.5, 5 and 50 mg/kg/day i.v., administration and recovery periods): no death occurred
- Hematological changes relative to normal range (Sprague-Dawley rats; 50 mg/kg/day i.v., both sexes): within the range of normal physiological variations
- Red blood cell count, hemoglobin and hematocrit (Sprague-Dawley rats; 50 mg/kg/day i.v., both sexes): increasing tendency in red blood cell count, hemoglobin and hematocrit
- Total white blood cell count (Sprague-Dawley rats; 50 mg/kg/day i.v., both sexes): decreasing tendency in total white blood cell count
- Systemic tremor (Sprague-Dawley rats; 50 mg/kg/day i.v., both sexes, from day 0): systemic tremor was observed transiently during the injection in both sexes
- Day by which systemic tremor disappeared (Sprague-Dawley rats; 50 mg/kg/day i.v., females): ≤ 4 days
- Day by which systemic tremor disappeared (Sprague-Dawley rats; 50 mg/kg/day i.v., males): ≤ 6 days
- Reversibility of observed changes (Sprague-Dawley rats; after discontinuing administration, four-week recovery): All observed changes were reversed by discontinuing administration
- Incidence of hypertrophy of serous cells in the submaxillary gland (histopathology) (Sprague-Dawley rats; both sexes, all treatment groups, i.v.): showed dose-dependency in both sexes of all treatment groups
- Food consumption and body weight changes (Sprague-Dawley rats; females, i.v.): unremarkable
- Blood biochemical parameters (Sprague-Dawley rats; i.v.): No treatment-related abnormalities were observed
- Gross changes at autopsy (Sprague-Dawley rats; i.v.): no treatment-related grossly abnormal changes
- Histopathology of other organs (light microscopy) (Sprague-Dawley rats; i.v.): no remarkable changes were shown at the light microscopic level
- Liver and kidney electron microscopical examination (Sprague-Dawley rats; i.v.): nor were there any abnormal changes in the liver or kidney
- Other hematological parameters (Sprague-Dawley rats; i.v.): not related to the dose
- Urinary findings (other than urine volume) (Sprague-Dawley rats; i.v.): unremarkable
- Other clinical signs (Sprague-Dawley rats; i.v., administration and recovery periods): no other remarkable clinical signs
- Urine volume (Sprague-Dawley rats; males and females, 5 mg/kg/day or above i.v., week 2 and 5): increase in urine volume
- Body weight gain (Sprague-Dawley rats; males, particularly 0.5, 5 and 50 mg/kg/day i.v.): body weight gain was suppressed in males
- Food consumption (Sprague-Dawley rats; treated males, versus control males, i.v.): tended to decrease food consumption
- Central nervous system effect (central nervous system): exhibits central nervous system stimulating effects
